How the values were obtained:
[1] = test system: giant foxtail; test: Test C preemergence/postemergence greenhouse plant response rating 0 to 100; format: in vivo, Setaria faberii; conditions: POSTEMERGENCE; for Plant response rating, Giant foxtail: 0 to 100 scale
Summary of the method: (§1)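 Compounds in non-phytotoxic solvent applied preemergence to sandy loam one day after planting, postemergence at the 1–4 leaf stage, or to ~2.5 cm floodwater over silt loam.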

[2] = test system: bedstraw; test: Test B preemergence/postemergence greenhouse plant response rating 0 to 10; format: in vivo, Galium aparine; conditions: for Plant response rating, Bedstraw: 0 to 10 scale
Summary of the method: (§2)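 Test chemicals, dissolved in a non-phytotoxic solvent, were applied to soil at planting and, at the same time, over foliage of seedlings at the one to four leaf stage.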

[3] = test system: rice; test: as above; format: in vivo, Oryza sativa; conditions: 0 to 10 scale
Summary of the method: as §2

[4] = test system: wild buckwheat; test: as above; format: in vivo, Polygonum convolvulus; conditions: 0 to 10 scale
Summary of the method: as §2

[5] = test system: lambsquarters; test: Test C preemergence/postemergence greenhouse plant response rating 0 to 100; format: in vivo, Chenopodium album; conditions: POSTEMERGENCE; for Plant response rating Lambsquarters: 0 to 100 scale
Summary of the method: as §1

[6] = test system: blackgrass; test: Test B preemergence/postemergence greenhouse plant response rating 0 to 10; format: in vivo, Alopecurus myosuroides; conditions: for Plant response rating, Blackgrass: 0 to 10 scale
Summary of the method: as §2

[7] = test system: wheat; test: Test C preemergence/postemergence greenhouse plant response rating 0 to 100; format: in vivo, Triticum aestivum; conditions: POSTEMERGENCE; for Plant response rating, Wheat: 0 to 100 scale
Summary of the method: as §1

[8] = test system: barley; test: Test B preemergence/postemergence greenhouse plant response rating 0 to 10; format: in vivo, Hordeum vulgare; conditions: for Plant response rating, Barley: 0 to 10 scale
Summary of the method: as §2

[9] = test system: barnyardgrass; test: Test C flood test plant response rating 0 to 100; format: in vivo, Echinochloa crus-galli; conditions: for Plant response rating (0 to 100), Barnyardgrass: under POSTEMERGENCE head (flood test species); for Plant response rating, Barnyardgrass: flood test species listed under POSTEMERGENCE, 0 to 100 scale
Summary of the method: as §1

[10] = test system: blackgrass; test: Test C preemergence/postemergence greenhouse plant response rating 0 to 100; format: in vivo, Alopecurus myosuroides; conditions: POSTEMERGENCE; for Plant response rating, Blackgrass: 0 to 100 scale
Summary of the method: as §1

[11] = test system: ryegrass; test: as above; format: in vivo, Lolium multiflorum; conditions: POSTEMERGENCE; for Plant response rating Ryegrass: 0 to 100 scale
Summary of the method: as §1

[12] = test system: corn; test: as above; format: in vivo, Zea mays; conditions: POSTEMERGENCE; for Plant response rating, Corn: 0 to 100 scale
Summary of the method: as §1

[13] = test system: rape; test: as above; format: in vivo, Brassica napus; conditions: POSTEMERGENCE; for Plant response rating, Rape: 0 to 100 scale
Summary of the method: as §1

[14] = test system: sugar beet; test: as above; format: in vivo, Beta vulgaris; conditions: POSTEMERGENCE; for Plant response rating, Sugar beet: 0 to 100 scale
Summary of the method: as §1

[15] = test system: cotton; test: Test B preemergence/postemergence greenhouse plant response rating 0 to 10; format: in vivo, Gossypium hirsutum; conditions: for Plant response rating, Cotton: 0 to 10 scale
Summary of the method: as §2

[16] = test system: cheatgrass; test: as above; format: in vivo, Bromus secalinus; conditions: for Plant response rating, Cheatgrass: 0 to 10 scale
Summary of the method: as §2

[17] = test system: cocklebur; test: as above; format: in vivo, Xanthium pensylvanicum; conditions: for Plant response rating, Cocklebur: 0 to 10 scale
Summary of the method: as §2

[18] = test system: duck salad; test: Test C flood test plant response rating 0 to 100; format: in vivo, Heteranthera limosa; conditions: for Plant response rating Duck salad: flood test species listed under POSTEMERGENCE, 0 to 100 scale
Summary of the method: as §1

CC(C)COc1cc(-c2nn3c(c2Cl)CCCC3)c(F)cc1Cl [Compound 30]
Plant response rating, Giant foxtail ([1]; 62 g/ha): 50
Plant response rating, Giant foxtail ([1]; 250 g/ha): 80
Plant response rating (0 to 100), Giant foxtail ([1]; Rate 4 g/ha): 0
Plant response rating (0 to 100), Giant foxtail ([1]; Rate 16 g/ha): 20
Plant response rating (0 to 10 scale), Bedstraw ([2]; POSTEMERGENCE, Rate 50 g/ha): 8
Plant response rating, Bedstraw ([2]; POSTEMERGENCE, Rate 200 g/ha): 10
Plant response rating, Bedstraw ([2]; PREEMERGENCE, Rate 50 g/ha): 0
Plant response rating, Bedstraw ([2]; Rate 200 g/ha, PREEMERGENCE): 9
Plant response rating, Rice ([3]; POSTEMERGENCE, Rate 50 g/ha): 5
Plant response rating, Rice ([3]; PREEMERGENCE, Rate 50 g/ha): 0
Plant response rating, Rice ([3]; Rate 200 g/ha, POSTEMERGENCE): 5
Plant response rating, Rice ([3]; Rate 200 g/ha, PREEMERGENCE): 2
Plant response rating, Wild buckwheat ([4]; POSTEMERGENCE, Rate 50 g/ha): 10
Plant response rating, Wild buckwheat ([4]; PREEMERGENCE, Rate 50 g/ha): 0
Plant response rating, Wild buckwheat ([4]; Rate 200 g/ha, POSTEMERGENCE): 10
Plant response rating, Wild buckwheat ([4]; Rate 200 g/ha, PREEMERGENCE): 6
Plant response rating Lambsquarters ([5]; 62 g/ha): 90
Plant response rating Lambsquarters ([5]; 250 g/ha): 100
Plant response rating (0 to 100), Lambsquarters ([5]; Rate 4 g/ha): 50
Plant response rating (0 to 100), Lambsquarters ([5]; Rate 16 g/ha): 70
Plant response rating (0 to 10 scale), Blackgrass ([6]; POSTEMERGENCE, Rate 50 g/ha): 5
Plant response rating, Blackgrass ([6]; POSTEMERGENCE, Rate 200 g/ha): 5
Plant response rating, Blackgrass ([6]; PREEMERGENCE, Rate 50 g/ha): 0
Plant response rating, Blackgrass ([6]; Rate 200 g/ha, PREEMERGENCE): 0
Plant response rating, Wheat ([7]; 62 g/ha): 60
Plant response rating, Wheat ([7]; 250 g/ha): 90
Plant response rating (0 to 100), Wheat ([7]; Rate 4 g/ha): 20
Plant response rating (0 to 100), Wheat ([7]; Rate 16 g/ha): 30
Plant response rating (0 to 10 scale), Barley ([8]; POSTEMERGENCE, Rate 50 g/ha): 5
Plant response rating, Barley ([8]; POSTEMERGENCE, Rate 200 g/ha): 6
Plant response rating, Barley ([8]; PREEMERGENCE, Rate 50 g/ha): 0
Plant response rating, Barley ([8]; Rate 200 g/ha, PREEMERGENCE): 2
Plant response rating (0 to 100), Barnyardgrass ([9]; Rate 4 g/ha): 85
Plant response rating (0 to 100), Barnyardgrass ([9]; Rate 16 g/ha): 95
Plant response rating, Barnyardgrass ([9]; 62 g/ha): 100
Plant response rating, Barnyardgrass ([9]; 250 g/ha): 100
Plant response rating, Blackgrass ([10]; 62 g/ha): 60
Plant response rating, Blackgrass ([10]; 250 g/ha): 80
Plant response rating (0 to 100), Blackgrass ([10]; Rate 4 g/ha): 10
Plant response rating (0 to 100), Blackgrass ([10]; Rate 16 g/ha): 20
Plant response rating Ryegrass ([11]; 62 g/ha): 60
Plant response rating Ryegrass ([11]; 250 g/ha): 80
Plant response rating (0 to 100), Ryegrass ([11]; Rate 4 g/ha): 20
Plant response rating (0 to 100), Ryegrass ([11]; Rate 16 g/ha): 40
Plant response rating, Corn ([12]; 62 g/ha): 30
Plant response rating, Corn ([12]; 250 g/ha): 40
Plant response rating (0 to 100), Corn ([12]; Rate 4 g/ha): 20
Plant response rating (0 to 100), Corn ([12]; Rate 16 g/ha): 20
Plant response rating, Rape ([13]; 62 g/ha): 100
Plant response rating, Rape ([13]; 250 g/ha): 100
Plant response rating (0 to 100), Rape ([13]; Rate 4 g/ha): 50
Plant response rating (0 to 100), Rape ([13]; Rate 16 g/ha): 80
Plant response rating, Sugar beet ([14]; 62 g/ha): 100
Plant response rating, Sugar beet ([14]; 250 g/ha): 100
Plant response rating (0 to 100), Sugar beet ([14]; Rate 4 g/ha): 80
Plant response rating (0 to 100), Sugar beet ([14]; Rate 16 g/ha): 100
Plant response rating (0 to 10 scale), Cotton ([15]; POSTEMERGENCE, Rate 50 g/ha): 10
Plant response rating, Cotton ([15]; POSTEMERGENCE, Rate 200 g/ha): 10
Plant response rating, Cotton ([15]; PREEMERGENCE, Rate 50 g/ha): 2
Plant response rating, Cotton ([15]; Rate 200 g/ha, PREEMERGENCE): 6
Plant response rating (0 to 10 scale), Cheatgrass ([16]; POSTEMERGENCE, Rate 50 g/ha): 6
Plant response rating, Cheatgrass ([16]; POSTEMERGENCE, Rate 200 g/ha): 7
Plant response rating, Cheatgrass ([16]; PREEMERGENCE, Rate 50 g/ha): 0
Plant response rating, Cheatgrass ([16]; Rate 200 g/ha, PREEMERGENCE): 4
Plant response rating (0 to 10 scale), Cocklebur ([17]; POSTEMERGENCE, Rate 50 g/ha): 7
Plant response rating, Cocklebur ([17]; POSTEMERGENCE, Rate 200 g/ha): 10
Plant response rating, Cocklebur ([17]; PREEMERGENCE, Rate 50 g/ha): 0
Plant response rating, Cocklebur ([17]; Rate 200 g/ha, PREEMERGENCE): 4
Plant response rating (0 to 100), Duck salad ([18]; POSTEMERGENCE section, flood test, Rate 4 g/ha): 0
Plant response rating (0 to 100), Duck salad ([18]; Rate 16 g/ha, under POSTEMERGENCE head (flood test species)): 30
Plant response rating Duck salad ([18]; 62 g/ha): 40
Plant response rating Duck salad ([18]; 250 g/ha): 60

Reference: patent publication US6358885B1, “Substituted phenylheterocyclic herbicides” (Mississippi State University, priority 1992, dated 2002)
